Source: BindingDB's records for doi:10.1111/cbdd.12530 (Chinese Academy of Sciences, 2015)

target: Dihydroorotate dehydrogenase (quinone), mitochondrial (Homo sapiens, UniProt Q02127); assay: DCIP-linked Assay; conditions: pH 8
Procedure: Recombinant human DHODH (final enzyme concentration between 20 and 60 nM in the assay well) were incubated at 37 °C in 50 mM Tris-HCl, 0.1% Triton X-100, 1 mM KCN, pH 8.0 with coenzyme Q10 (100 µM), and the tested compounds at different concentrations (final DMSO concentration 0.1% v/v). The reaction was initiatedby the addition of DHO (500 µM), and the reduction of DCIP (50 µM) was monitored through a decrease in absorbance at 650 nm.

Sequence of Dihydroorotate dehydrogenase (quinone), mitochondrial (Q02127 whole entry): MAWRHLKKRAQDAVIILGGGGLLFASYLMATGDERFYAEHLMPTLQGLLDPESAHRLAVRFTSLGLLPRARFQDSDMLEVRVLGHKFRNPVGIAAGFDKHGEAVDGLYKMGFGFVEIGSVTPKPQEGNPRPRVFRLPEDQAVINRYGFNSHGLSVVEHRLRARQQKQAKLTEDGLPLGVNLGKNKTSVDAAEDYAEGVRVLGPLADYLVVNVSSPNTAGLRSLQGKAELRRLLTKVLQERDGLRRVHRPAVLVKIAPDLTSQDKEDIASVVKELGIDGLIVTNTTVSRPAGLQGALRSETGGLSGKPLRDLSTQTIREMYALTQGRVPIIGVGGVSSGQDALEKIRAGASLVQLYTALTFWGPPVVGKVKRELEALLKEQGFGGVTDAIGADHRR

Row | Compound | IC50
1 | CC[C@H](C)[C@@H]1NC(=O)[C@@H]2CCCN2C1=O [Cyclo L-Pro-L-Ile (Fr. 1-5)] | > 50 µM
2 | CC(C)C[C@@H]1NC(=O)[C@@H]2CCCN2C1=O [Cyclo L-Pro-L-Leu (Fr. 1-6)] | > 50 µM
3 | CC(C)[C@@H]1NC(=O)[C@@H]2CCCN2C1=O [Cyclo L-Pro-L-Val (Fr. 2-1)] | > 50 µM

Results, then the compound that gave them:

Row | IC50 | Compound
4 | 0.773 µM | O=C1N[C@@H](Cc2ccccc2)C(=O)N2C[C@H](O)C[C@@H]12 [Cyclo L-OH-Pro-L-Phe (Fr. 1-4)]
5 | > 50 µM | O=C1N[C@@H](Cc2ccccc2)C(=O)N2CCC[C@@H]12 [Cyclo L-Pro-L-Phe (Fr. 2-2)]
